Values of other authors, collected in patent publication US20110151028A1, “Topical vaginal preparation” (priority 2009, published 2011).

Conditions: carrier: standard hydrophilic transdermal carrier, propylene glycol

SMILES: CC[C@H]1OC(=O)[C@H](C)[C@@H](O[C@H]2C[C@@](C)(OC)[C@@H](O)[C@H](C)O2)[C@H](C)[C@@H](O[C@@H]2O[C@H](C)C[C@H](N(C)C)[C@H]2O)[C@](C)(O)C[C@@H](C)C(=O)[C@H](C)[C@@H](O)[C@]1(C)O [erythromycin]
- systemic absorption of transdermally delivered erythromycin: rapid systemic absorption
